Source: US20010018454A1, “Method for protecting wood and wooden articles from fungal infection” (priority 2000, published 2001)
Where two headings read alike, the source gives them in different places.

How the values were obtained:
blue stain infection = tested on: blue stain infection
From the text: Immersion Impregnation with Aqueous Potassium Sorbate Solution Air-dry pine boards are dipped into a solution of 30% potassium sorbate in water for […] of the surface. After the treatment they are air dried.
Air-dried pine boards are, as in example 1, dipped into a solution of 30% potassium sorbate in a mixture of 75% by volume of water and 25% by volume of 1,2-propanediol, further treated and stored.
Air-dried pine boards are sprayed with a spraying pistol with a solution of 20% potassium sorbate in water until the surface is uniformly wet. The boards are then allowed to dry and are stored as in example 1.

molds = details: 35° C. saturated water vapor
Protocol: Two pinewood boards in each case are dipped into potassium sorbate solution (see table 1 for concentrations) and stored in a saturated water vapor atmosphere at 35° C. In parallel with this, in each case two pinewood boards, after the dipping, were additionally dirtied with soil on the surface in order to achieve greater surface contamination with molds. The boards were individually packed in film in order to exclude cross contaminations and regularly visually examined for fungal infection.

fungi = details: cited from earlier work
wood-damaging fungi = details: cited from earlier work

## C/C=C/C=C/C(=O)[O-].[K+] [potassium sorbate]
Blue stain infection; pine boards dipped in 30% potassium sorbate in 75% by volume water / 25% by volume 1,2-propanediol, stored as in example 1
  Fungal infection after storage: completely free from fungal infection
Blue stain infection; pine boards dipped in 30% potassium sorbate in water, stored in the open three weeks next to untreated boards
  Fungal infection after storage: remain free from fungal infection
Blue stain infection; pine boards sprayed with 20% potassium sorbate in water, stored as in example 1
  Fungal infection after storage: corresponds to that of example 1
molds; V1: dwell time 10 min, 1 % by weight solution, without soil
  Fungal infection: no/after 81 days
molds; V2: dwell time 10 min, 2 % by weight solution, without soil
  Fungal infection: no/after 81 days
molds; V3: dwell time 10 min, 5 % by weight solution, without soil
  Fungal infection: no/after 81 days
molds; V4: dwell time 5 min, 10 % by weight solution, without soil
  Fungal infection: no/after 81 days
molds; V5: dwell time 10 min, 1 % by weight solution, with soil
  Fungal infection: little/from day 43
molds; V6: dwell time 10 min, 2 % by weight solution, with soil
  Fungal infection: little/from day 53
molds; V7: dwell time 10 min, 5 % by weight solution, with soil
  Fungal infection: no/after 81 days
molds; V8: dwell time 5 min, 10 % by weight solution, with soil
  Fungal infection: no/after 81 days

## C/C=C/C=C/C(=O)[O-].[Na+] [sodium sorbate]
fungi; generally, even after a few days
  Protection of bamboo against fungal infection: infection with fungi
fungi; pH 3.0
  Protection of bamboo against fungal infection: active

## C/C=C/C=C/C(=O)[O-].C/C=C/C=C/C(=O)[O-].[Zn+2] [zinc salt of sorbic acid]
wood-damaging fungi
  Activity as wood preservative: inactive
